{"source": "patent WO2022059996A1", "about": "“Blood circulation micro in-vitro corpuscle-mediated cancer treatment composition” (SEOUL TECHNO HOLDINGS Inc, priority 2020, dated 2022)", "key": {"LNCaP-SL cells [1]": {"system": "LNCaP-SL cells", "test": "csEV-mediated LNCaP-SL transwell migration inhibition", "format": "cell-based, human", "conditions": "csEV as attractant"}, "YAP [2]": {"system": "YAP", "test": "Immunocytochemical analysis of YAP expression and nuclear localization", "format": "cell-based", "conditions": "csEV incubation; KRCT-6j given on top of csEV"}, "[3]": {"system": "GR-H1993 (gefitinib-resistant-H1993) cells", "test": "csEV-mediated proliferation of GR-H1993 cells", "format": "cell-based", "conditions": "csEV treatment"}, "YAP [4]": {"system": "YAP", "test": "csEV-induced nuclear localization of YAP in GR-H1993 cells", "format": "cell-based"}, "HCT116 cells": {"system": "HCT116 cells", "test": "Antiproliferative screening in HCT116 colon cancer cells", "format": "cell-based, human", "conditions": "medium containing csEV and compound; inhibitory in both HCT116 and LNCaP-SL"}, "LNCaP-SL cells [5]": {"system": "LNCaP-SL cells", "test": "Antiproliferative screening in metastatic LNCaP-SL prostate cancer cells", "format": "cell-based, human", "conditions": "medium containing csEV and compound; inhibitory in both HCT116 and LNCaP-SL"}, "GR-H1993 cells": {"system": "GR-H1993 cells", "test": "GR-H1993 xenograft mouse model", "format": "in vivo", "conditions": "gefitinib 25 mg/kg PO, KRCT-6j 20 mg/kg IP, daily for 28 days, male Athymic BALB/c-nu mice"}, "LNCaP-SL cells [6]": {"system": "LNCaP-SL cells", "test": "LNCaP-SL proliferation with docetaxel in the presence or absence of EV", "format": "cell-based, human", "conditions": "50 nM docetaxel; EV-containing normal 10% FBS versus 10% FBS without EVs"}}, "data": [{"smiles": "Cn1cc(-c2cnc(Nc3cc(Cl)cc(Cl)c3)nc2NC2CCCCC2)cn1", "note": "[KRCT-6j, N 4 -Cyclohexyl-N 2-(3,5-dichlorophenyl)-5-(1-methyl-1 H -pyrazol-4-yl)pyrimidine-2,4-diamine]", "values": [{"measurement": "inhibition of csEV-promoted migration of LNCaP-SL cells", "setting": "LNCaP-SL cells [1]", "value": "inhibited by KRCT-6j in a concentration-dependent manner"}, {"measurement": "YAP expression and nuclear localization", "setting": "YAP [2]", "value": "decreased again"}, {"measurement": "proliferation of GR-H1993 cells", "setting": "[3]", "value": "inhibit only the proliferative effect of csEV-mediated GR-H1993"}, {"measurement": "csEV-induced nuclear localization of YAP", "setting": "YAP [4]", "value": "inhibited"}, {"measurement": "proliferation inhibitory response, HCT116", "setting": "HCT116 cells", "value": "both cell inhibitory responses"}, {"measurement": "proliferation inhibitory response, LNCaP-SL", "setting": "LNCaP-SL cells [5]", "value": "both cell inhibitory responses"}]}, {"smiles": "COc1cc2ncnc(Nc3ccc(F)c(Cl)c3)c2cc1OCCCN1CCOCC1", "note": "[gefitinib]", "values": [{"measurement": "tumor growth, GR-H1993 xenograft", "setting": "GR-H1993 cells", "value": "did not affect tumor growth"}]}, {"smiles": "CC(=O)O[C@@]12CO[C@@H]1C[C@H](O)[C@@]1(C)C(=O)[C@H](O)C3=C(C)[C@@H](OC(=O)[C@H](O)[C@@H](NC(=O)OC(C)(C)C)c4ccccc4)C[C@@](O)([C@@H](OC(=O)c4ccccc4)[C@H]21)C3(C)C", "note": "[docetaxel]", "values": [{"measurement": "resistance of LNCaP-SL cells to docetaxel", "setting": "LNCaP-SL cells [6]", "value": "much more resistant to docetaxel"}]}]}
